Measurements from PubChem BioAssay (NCI).
“And” between values parts separate entries of the source, which are not always exact repeats. Equal values may be shown once.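 Grown in 96-well plates, cells were treated for 48 hours with each compound at five concentrations. Insufficient inhibition: endpoint recorded as highest concentration tested. GI50: concentration for 50% inhibition of growth. TGI: total growth inhibition.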

Tests used:
Assay in all cases: DTP human tumour cell line panel, 48 h
OVCAR-8 ovarian = test system: OVCAR-8 ovarian
HT29 colon = test system: HT29 colon
HCT-116 colon = test system: HCT-116 colon
LOX IMVI melanoma = test system: LOX IMVI melanoma
A549 NSCLC = test system: A549 NSCLC
NCI/ADR-RES ovarian = test system: NCI/ADR-RES ovarian
UO-31 renal = test system: UO-31 renal
MOLT-4 leukemia = test system: MOLT-4 leukemia
UACC-62 melanoma = test system: UACC-62 melanoma
RXF 393 renal = test system: RXF 393 renal

| SMILES | GI50 (OVCAR-8 ovarian) [µM] | TGI (OVCAR-8 ovarian) | GI50 (HT29 colon) [µM] | TGI (HT29 colon) | GI50 (HCT-116 colon) [µM] | TGI (HCT-116 colon) | GI50 (LOX IMVI melanoma) [µM] | TGI (LOX IMVI melanoma) | GI50 (A549 NSCLC) [µM] | TGI (A549 NSCLC) | GI50 (NCI/ADR-RES ovarian) [µM] | TGI (NCI/ADR-RES ovarian) [µM] | GI50 (UO-31 renal) [µM] | TGI (UO-31 renal) | GI50 (MOLT-4 leukemia) [µM] | TGI (MOLT-4 leukemia) | GI50 (UACC-62 melanoma) [µM] | TGI (UACC-62 melanoma) | GI50 (RXF 393 renal) [µM] | TGI (RXF 393 renal) |
| --- | --- | --- | --- | --- | --- | --- | --- | --- | --- | --- | --- | --- | --- | --- | --- | --- | --- | --- | --- | --- |
| Cc1c(C(N)=O)sc2c1c(=O)n(Cc1ccccc1)c1nnc(S(=O)(=O)CC(=O)Nc3ccc(Cl)cc3)n21 | 3.69 | 15.6 µM | 6.82 | 26 µM | 2.1 | 5.22 µM | 6.15 | 20.6 µM | 2.3 | 6.04 µM | 20.2 | 63.4 | 2.86 | 11.3 µM | 15.6 | 46.8 µM | 4.21 | 18.7 µM | 2.41 | 7.13 µM |
| Cn1c2ccccc2c2[nH]c3ccccc3c(=O)c21 | – | > 100 µM | – | > 100 µM | – | > 100 µM | – | > 100 µM | – | > 100 µM | – | > 100 | – | > 100 µM | – | > 100 µM | – | > 100 µM | – | > 100 µM |
| O=C1c2ccn(CCCCN(CCO)CCO)c2C(=O)c2c1c(O)c1ccccc1c2O | 3.61 | > 100 µM | 3.39 | > 100 µM | 2.04 | – | 1.04 | 3.64 µM | 2.32 | 7.33 µM | 3.31 | 12.7 | 12.5 | > 100 µM | 2.55 | – | 1.09 | 2.77 µM | 5.19 | > 58.6 µM |
| COC(=O)Nc1nc2ccc(S(=O)(=O)c3ccc(NC(=O)Nc4cc(C(F)(F)F)ccc4F)cc3)cc2[nH]1 | > 25 | > 25 µM | > 25 | > 25 µM | > 25 | > 25 µM | > 25 | > 25 µM | > 25 | > 25 µM | > 25 | > 25 | > 25 | > 25 µM | > 25 | > 25 µM | > 25 | > 25 µM | > 25 | > 25 µM |
| CC1=NN(c2ccccc2)C(=O)C1N=Nc1ccc(S(N)(=O)=O)cc1 (stereo unspecified) | – | > 100 µM | – | > 100 µM | – | > 100 µM | – | > 100 µM | – | > 100 µM | – | > 100 | – | > 100 µM | – | > 100 µM | – | > 100 µM | – | > 100 µM |
| CN(CCCN(C)CCC1CCCCC1)CCC1CCCCC1 | 4.85 | 18.4 µM | 0.475 | 2.37 µM | 2.52 | 7.45 µM | 1.61 | 3.55 µM | 9.8 | 24.1 µM | 6.6 | 20.1 | 1.58 | 14.4 µM | 2.4 | 7.3 µM | 0.888 | 2.39 µM | 0.946 | 3.54 µM |
| O=C1C=C(OCCCl)C(=O)c2c(O)ccc(O)c21 | 1.59 | 5.08 µM and 3.03 µM | 1.12 | 1.03 µM and 2.89 µM | 1.33 | 1.33 µM and 3.2 µM | 0.465 | 0.392 µM and 1.83 µM | 1.63 | 0.686 µM and 3.41 µM | 9.41 | – | 1.95 | 2.76 µM and 4.5 µM | 0.368 | 6.5 µM and 1.58 µM | 0.386 | 0.519 µM and 1.61 µM | – | 3.38 µM and 3.96 µM |
